The record followed here is US20100222384A1 (priority 2009, published 2010).

The term EC50 denotes the concentration at which the effect is half-maximal.

The structures appear in SMILES notation.

The first test concerns Pichinde virus CoAn 3739 strain. It is filed as cell-based.
Settings: not given
Consider `COCCCCCCCCCN1C[C@H](O)[C@@H](O)[C@H](O)[C@H]1CO` [N9-DNJ, N-(9-Methoxynonyl)deoxynojirimycin], for which the “PICV in vitro inhibition” value was “over 99%”.
Same read-out and setting: as for `CCCOCCCCCCN1C[C@H](O)[C@@H](O)[C@H](O)[C@H]1CO` [N7-O-DNJ, N-(7-Oxadecyl)deoxynojirimycin], the figure is 70%; as for `CCCCN1C[C@H](O)[C@@H](O)[C@H](O)[C@H]1CO` [NB-DNJ, N-Butyl deoxynojirimycin], “over 50%”.

Another test has as its system Junin virus Candid #1 strain. It is filed as cell-based. Conditions: read-out: EC50, Junin virus inhibition.
As to `[N-]=[N+]=Nc1ccc(NCCCCCCN2C[C@H](O)[C@@H](O)[C@H](O)[C@H]2CO)c([N+](=O)[O-])c1` [NAP-DNJ, N-(N-{4′-azido-2′-nitrophenyl}-6-aminohexyl)deoxynojirimycin], the EC50 came out at 10 µM.
Regarding `CCCCN1C[C@H](O)[C@@H](O)[C@H](O)[C@H]1CO` [NB-DNJ, N-Butyl deoxynojirimycin], the 50% effective concentration (EC50) turned out to be 350 µM.
On the same count and under the same terms, as for `CCCCCCCCCN1C[C@H](O)[C@@H](O)[C@H](O)[C@H]1CO` [NN-DNJ, N-Nonyl deoxynojirimycin], the figure is 60 µM.
